Test results taken from patent US7253177B2, “Synthesis and antimalarial activity of pyrrolo[3,2-f]quinazoline-1,3-diamine derivatives” (United States of America as Represented by the Secretary of …, priority 2004, dated 2007).
Values after ≈ are worked out from the molar mass of the structure shown. Read-outs that look alike come from different tables or passages of the source.

What was measured:
[1] = mice; cited from earlier work
P. falciparum = conditions: background, reported; cited from earlier work
[2] = tested on: Plasmodium falciparum W-2 clone (CDC Indochina III); assay: In vitro antimalarial study, [3H]hypoxanthine uptake, W-2 clone; type: cell-based; conditions: for IC50: Plasmodium falciparum, read-out: IC50 W-2; for IC50 W-2: P. falciparum W-2 clone
Description: (§1) B. Antimalarial Activities: (a). In Vitro Antimalarial Studies. The in vitro assays were conducted by using a modification of the semiautomated microdilution technique of Desjardins et al and Chulay et al.. Four P. falciparum malaria parasite clones, from CDC Indochina III (W-2), CDC Sierra Leone I (D-6), Southeast Asia Isolates (TM91C235) and RCS (Isolates from Brazil) were utilized in susceptibility testing. They were derived by direct visualization and micromanipulation from patient isolates. The W-2 clone is susceptible to mefloquine but resistant to chloroquine, sulfadoxine, pyrimethamine, and quinine, whereas the D-6 clone is naturally resistant to mefloquine but susceptible to chloroquine, sulfadoxine, pyrimethamine and quinine. Test compounds were initially dissolved in DMSO and diluted 400 fold in RPMI 1640 culture medium supplemented with 25 mM Hepes, 32 mM NaHCO3 and 10% Albumax I (Gibco BRL, Grand Island, N.Y.). These solutions were subsequently serially diluted two-fold with a Biomek 1000 (Beckman, Fullerton, Calif.) over 11 different concentrations. The parasites were exposed to serial dilutions of each compound for 48 hrs and incubated at 37° C. with 5% O2, 5% CO2 and 90% N2 prior to the addition of [^3H]hypoxanthine. After a further incubation of 18 hrs, parasite DNA was harvested from each microtiter well using Packard Filtermate 196 Harvester (Meriden, Conn.) onto glass filters. Uptake of [^3H]hypoxanthine was measured with a Packard Topcount Scintillation. Concentration-response data were analyzed by a non-linear regression logistic dose response model and the IC50 values (50% inhibitory concentrations) for each compound were calculated. (Table 3). (b). In Vivo Antimalarial Studies against P. berghei in mice: The in vivo efficacy of the artelinic acid analogs were determined in a modified Thompson test. This test measures the survivability of mice and parasitemia clearance following administration of drug on days 3-5 post infection. In brief, 5×10^6 P. berghei-infected erythrocytes (KBG-173 strain) were inoculated intraperitoneally to female mice that weighed 24-30 g. By day three post-infection, parasitemia ranged from 1.0-3.7%. Each drug, dissolved in 5% sodium bicarbonate, was administered PO twice daily from day 3-5 post-infection. Total doses for each drug ranged from 1.5-384 mg/kg with 8 mice included in each dosage group. The percent suppression of parasitemia in the treated mice compared to the untreated controls was determined for each test compound; the SD-50 (fifty percent suppression dose) and SD-90 were determined from a non-linear regression logistic dose response fit at day 6 parasitemia data. Survival of mice to day 60 post-infection was considered a cure (C). Compounds were considered active (A) when the survival time of the treated mice was greater than twice the control mice, i.e., 12-14 day (Table 4-5). (c). Sporozoite Induced Test Each compound is ground with a mortar & pestle and suspended in 0.5% hydroxyethylcellulose—0.1% Tween 80 for compounds to be administered PO and those given SC are suspended in peanut oil. Each compound is prepared at 3 different dose levels as requested by WRAIR. Compounds are administered either PO or SC to mice once 4 hr before inoculation of sporozoites. Four-week-old male CD-1 mice, purchased from Charles River and weighing 16-17 g, are placed 5 per cage and allowed to acclimate for 4 days before being treated and then inoculated with sporozoites. They are fed food and water ad-lib and maintained at 76° F. with 12 hr light and 12 hr darkness. The cages and water bottles are changed biweekly. The mice are weighed on Days 0, 3 and 6 then biweekly when blood films are taken. Plasmodium yoelii (17×) is used to infect mice that will be used to infect the mosquitoes. Mice are given a single dose of test compound 4 hr before being inoculated intraperitoneally with 2.5×10^5 sporozoites of Plasmodium yoelii on Day 0. […]

[3] = tested on: Plasmodium berghei (KBG-173 strain); type: in vivo; conditions: mice, oral
Description: as §1

[4] = Aotus monkey; cited from earlier work
[5] = tested on: Plasmodium falciparum TM91C235 (Southeast Asia Isolates); assay: In vitro antimalarial study, [3H]hypoxanthine uptake, TM91C235 clone; type: cell-based; conditions: for IC50 TM91C235: P. falciparum TM91C235 clone
Description: as §1

[6] = Death rates after single intragastric treatment in rats; type: in vivo; conditions: for Day of Death: number of deaths: rats
P. berghei = conditions: rodent model; cited from earlier work
[7] = tested on: Plasmodium falciparum D-6 clone (CDC Sierra Leone I); assay: In vitro antimalarial study, [3H]hypoxanthine uptake, D-6 clone; type: cell-based; conditions: for IC50: Plasmodium falciparum, read-out: IC50 D-6; for IC50 D-6: P. falciparum D-6 clone
Description: as §1

[8] = Solubility in common organic solvents and water; type: physicochemical
Plasmodium berghei = assay: Antimalarial activity against Plasmodium berghei in mice by subcutaneous injection; type: in vivo
[9] = tested on: Plasmodium falciparum RCS (Isolates from Brazil); assay: In vitro antimalarial study, [3H]hypoxanthine uptake, RCS clone; type: cell-based; conditions: P. falciparum RCS clone
Description: as §1

[10] = tested on: D-6, RCS, W-2 and TM91C235 clones of Plasmodium falciparum; assay: In vitro tests against D-6, RCS, W-2 and TM91C235 clones; type: cell-based; conditions: sensitive and drug resistant P. falciparum cell lines
Description: B. Antimalarial Activities: (a). In Vitro Antimalarial Studies. The in vitro assays were conducted by using a modification of the semiautomated microdilution technique of Desjardins et al and Chulay et al.. Four P. falciparum malaria parasite clones, from CDC Indochina III (W-2), CDC Sierra Leone I (D-6), Southeast Asia Isolates (TM91C235) and RCS (Isolates from Brazil) were utilized in susceptibility testing. They were derived by direct visualization and micromanipulation from patient isolates. […] Uptake of [^3H]hypoxanthine was measured with a Packard Topcount Scintillation. Concentration-response data were analyzed by a non-linear regression logistic dose response model and the IC50 values (50% inhibitory concentrations) for each compound were calculated. […] In Vivo Antimalarial Studies against P. berghei in mice: The in vivo efficacy of the artelinic acid analogs were determined in a modified Thompson test. […] The percent suppression of parasitemia in the treated mice compared to the untreated controls was determined for each test compound; the SD-50 (fifty percent suppression dose) and SD-90 were determined from a non-linear regression logistic dose response fit at day 6 parasitemia data. […]

## Nc1nc(N)c2c(ccc3c2ccn3Cc2ccccc2C(F)(F)F)n1 [Compound 1, 7-[(2-Trifluoromethyl-phenyl)methyl]-7H-pyrrolo[3,2-f]quinazoline-1,3-diamine, reference compound]
[1]
  subcutaneous LD50: less than 20 mg/kg
P. falciparum
  IC50 against P. falciparum in vitro: ~0.01 ng/mL (≈ 0.028 nM)
[2]
  IC50: 0.445 ng/mL (≈ 1.25 nM)
[3]; 40 mg/kg/day
  # Mice Alive Day 30/Total: 4/5
  # Mice Dead/Day Died: 1/17
[3]; 20-1.25 mg/kg/day
  # Mice Alive Day 30/Total: 5/5
  # Mice Dead/Day Died: none
[4]
  dose producing deaths / oral lethal dose: less than 2 mg/kg
[5]; Plasmodium falciparum, read-out: IC50 TM91C235
  IC50: 1.22 ng/mL (≈ 3.41 nM)
[6]; rats n=4, single intragastric 25 mg/kg in 1% CMC suspension
  Deaths: 0/4
[6]; rats n=4, single intragastric 50 mg/kg in 1% CMC suspension
  Deaths: 0/4
[6]; rats n=4, single intragastric 100 mg/kg in 1% CMC suspension
  Deaths: 0/4
[6]; rats n=4, single intragastric 200 mg/kg in 1% CMC suspension
  Deaths: 1/4
[6]; rats n=4, single intragastric 400 mg/kg in 1% CMC suspension
  Deaths: 3/4
[6]; 200 mg/kg, fourth cell after Deaths (day uncertain)
  Day of Death: number of deaths: 1
[6]; 400 mg/kg, second cell after Deaths (day uncertain)
  Day of Death: number of deaths: 1
[6]; 400 mg/kg, third cell after Deaths (day uncertain)
  Day of Death: number of deaths: 2
P. berghei
  100% curative oral dose against P. berghei: <0.1 to 4 mg/kg
[7]
  IC50: 0.0191 ng/mL (≈ 0.0535 nM)
[8]
  solubility: sparingly soluble
Plasmodium berghei; 20 mg/kg/day
  # Mice Alive Day 31/Total: 5/7
Plasmodium berghei; 40 mg/kg/day
  # Mice Alive Day 31/Total: 0/7
Plasmodium berghei; 10-2.5 mg/kg/day
  # Mice Alive Day 31/Total: 7/7
  # Mice Dead/Day Died: none
[9]; Plasmodium falciparum
  IC50: 0.357 ng/mL (≈ 0.999 nM)

## CCOC(=O)Nc1nc(N)nc2ccc3c(ccn3Cc3ccccc3C(F)(F)F)c12 [Compound 2a]
[2]
  IC50 W-2: >250 ng/mL
[3]; 40-2.5 mg/kg/day
  # Mice Dead/Day Died: Death in each dose
[5]
  IC50 TM91C235: >250 ng/mL
[7]
  IC50 D-6: 20.709 ng/mL (≈ 48.2 nM)
Plasmodium berghei; 40 mg/kg/day
  # Mice Alive Day 31/Total: 5/7
  # Mice Dead/Day Died: 2/17
Plasmodium berghei; 20-2.5 mg/kg/day
  # Mice Alive Day 31/Total: 7/7
  # Mice Dead/Day Died: none
[9]
  IC50 RCS: >250 ng/mL

## CC(C)(C)OC(=O)N(C(=O)OC(C)(C)C)c1nc(N)nc2ccc3c(ccn3Cc3ccccc3C(F)(F)F)c12 [Compound 2h]
[2]
  IC50 W-2: 3.6678 ng/mL (≈ 6.58 nM)
[3]; 1.25 mg/kg/day
  # Mice Alive Day 30/Total: 2/5
[3]; 80-2.5 mg/kg/day
  # Mice Alive Day 30/Total: 5/5
  # Mice Dead/Day Died: None
[5]
  IC50 TM91C235: 26.366 ng/mL (≈ 47.3 nM)
[7]
  IC50 D-6: 0.2549 ng/mL (≈ 0.457 nM)
Plasmodium berghei; 40-2.5 mg/kg/day
  # Mice Alive Day 31/Total: 7/7
  # Mice Dead/Day Died: none
[9]
  IC50 RCS: 5.2370 ng/mL (≈ 9.39 nM)

## CCN(CC)c1nc(N(CC)CC)c2c(ccc3c2ccn3Cc2ccccc2C(F)(F)F)n1 [Compound 5, 1,3-bis-(diethylamino)-7-(2-trifluromethyl)benzyl-7H-pyrrolo[3,2-f]quinazoline]
[2]
  IC50: 104 ng/mL (≈ 222 nM)
[3]; Thompson test
  oral dose range giving 100% cure against P. berghei: 10 to 80 mg/kg
[3]; 160 mg/kg/day
  # Mice Alive Day 30/Total: 4/8
[3]; 80-10 mg/kg/day
  # Mice Alive Day 30/Total: 8/8
  # Mice Dead/Day Died: none
[7]
  IC50: 46 ng/mL (≈ 98 nM)
[10]
  in vitro activity relative to lead compound 1: over ten thousand fold less active
